Measurements from patent publication US5420335A, “Parenteral nutrients based on watersoluble glycerol bisacetoacetates” (priority 1993, dated 1995).
Where “and” joins values, the source holds several entries; their conditions need not be identical. Equal values may be shown once. Entries after “also recorded” stand apart in the source; their conditions may differ.

How the values were obtained:
[1] = Plasma free fatty acids, glucose and ketone bodies after 7 days of infusion; assay type: in vivo, rat (male Sprague-Dawley); conditions: end of day 7; for ACAC / BOHB / FFa / Glucose / Ratio: A/B / T.KB: Table 5, Example 2; for T.KB: total ketone bodies
Protocol: (§1) Infusate volume, oral food intake, body weight and urinary volume and total nitrogen were monitored daily for each rat. Infusate volume and food intake were determined by weighing the appropriate container at the start and end of each 24 hr. period. Measurements were recorded between 9 and 10 AM each day. At the end of the 7th day, rats were sacrificed, and blood and liver were harvested. Plasma was separated for measurement of free fatty acids, glucose, and ketone bodies. Liver was weighed and a sample was fixed in buffered formalin for gross histology.
(§2) The data were analyzed for significance by the one-way analysis of variance with repeated measures and comparing the effect of dietary treatment on each day. […] The null hypothesis was concluded invalid if p≤0.05. The analysis of variance was computed on a SAS statistical package.

[2] = Liver weight after 7 days of infusion; assay type: in vivo, rat (male Sprague-Dawley); conditions: for Liver/100 GM / Liver Wt.: Table 5, Example 2; for Liver/100 GM: as percentage of body weight
Protocol: as §1
(§3) The data were analyzed for significance by the one-way analysis of variance with repeated measures and comparing the effect of dietary treatment on each day. […] The null hypothesis was concluded invalid if p≤0.05. The analysis of variance was computed on a SAS statistical package. […]

[3] = Daily body weight of intravenously infused rats; assay type: in vivo, rat (male Sprague-Dawley); conditions: for Daily Body Weight: Table 4, Example 2
Protocol: (§4) Water was available ad libitum at all times.
(§5) The vein was then ligated dorsally to the catheter. […] Body weights were measured daily.
as §1, §2
(§6) This compound has an estimated energy density of 4.86 kcal/gram based on thermodynamic data from similar compounds.

[4] = Daily urinary nitrogen losses of intravenously infused rats; assay type: in vivo, rat (male Sprague-Dawley); conditions: Table 2, Example 2
Protocol: as §4, §5, §1, §3

[5] = Oral dietary nitrogen (food) intake of intravenously infused rats; assay type: in vivo, rat (male Sprague-Dawley); conditions: Table 1, Example 2, average of 7 rats
[6] = Nitrogen balance (difference between intake and urinary output); assay type: in vivo, rat (male Sprague-Dawley); conditions: for nitrogen balance: 7 days; for Nitrogen Balance, Difference Between Intake and Output: Table 3, Example 2
Protocol: as §4, §5, §1, §2
FIG. 3 illustrates the difference between oral intake and urinary nitrogen output which is termed nitrogen balance. It is representative of nitrogen balance because urinary nitrogen is the major route for body loss of nitrogen.
The experimental compound contains 8% nitrogen. With an infusion of 5.6 grams/day, infused nitrogen would provide approximately 450 mg more than that listed in the data tables. The final balance figures includes this number which is calculated based on the actual daily infusion rate for each rat.

[7] = Mortality and gross toxicity on intravenous infusion; conditions: Example 2; 12.5 g/100 mL in 0.9% saline, 50 mL/day i.v.
Protocol: as §4, §5

[8] = Overall evaluation as a parenteral nutrient; assay type: in vivo, rat (male Sprague-Dawley); conditions: in words
Protocol: as §4, §5, §1, §2

[9] = Oral dietary nitrogen (food) intake of intravenously infused rats; assay type: in vivo, rat (male Sprague-Dawley); conditions: for Dietary Nitrogen Intake: Table 1, Example 2
Protocol: as §4, §5, §1, §2, §6

[10] = day 1, individual rat, listed as BISACETOACETYLGLYCEROL
[11] = day 2, individual rat, listed as BISACETOACETYLGLYCEROL
[12] = day 3, individual rat, listed as BISACETOACETYLGLYCEROL
[13] = day 4, individual rat, listed as BISACETOACETYLGLYCEROL
[14] = day 5, individual rat, listed as BISACETOACETYLGLYCEROL
[15] = day 6, individual rat, listed as BISACETOACETYLGLYCEROL
[16] = day 7, individual rat, listed as BISACETOACETYLGLYCEROL

Glycerol bis-acetoacetate [Compound 1]
ACAC ([1]; plasma, average of 7 rats): 0.716 mmol/L | BOHB ([1]; plasma, average of 7 rats): 0.776 mmol/L | FFa ([1]; plasma, average of 7 rats): 0.563 mmol/L | Glucose ([1]; plasma, average of 7 rats): 117.789 mg/dL | Ratio: A/B ([1]; plasma, average of 7 rats): 1.171 | ACAC ([1]; plasma, individual rat): 0.982 mmol/L and 0.851 mmol/L and 0.939 mmol/L and 0.447 mmol/L and 0.869 mmol/L and 0.550 mmol/L and 0.377 mmol/L | BOHB ([1]; plasma, individual rat): 0.797 mmol/L and 0.770 mmol/L and 1.059 mmol/L and 0.529 mmol/L and 1.021 mmol/L and 0.404 mmol/L and 0.849 mmol/L | FFa ([1]; plasma, individual rat): 0.540 mmol/L and 0.574 mmol/L and 0.745 mmol/L and 0.466 mmol/L and 0.483 mmol/L and 0.615 mmol/L and 0.519 mmol/L | Glucose ([1]; plasma, individual rat): 94.920 mg/dL and 149.000 mg/dL and 114.200 mg/dL and 163.500 mg/dL and 89.000 mg/dL and 122.100 mg/dL and 91.800 mg/dL | Ratio: A/B ([1]; plasma, individual rat): 0.812 and 0.905 and 1.128 and 1.185 and 1.175 and 0.735 and 2.254 | T.KB ([1]; plasma, average of 7 rats): 1.492 mmol/L | T.KB ([1]; plasma, individual rat): 1.779 mmol/L and 1.621 mmol/L and 1.998 mmol/L and 0.976 mmol/L and 1.890 mmol/L and 0.954 mmol/L and 1.226 mmol/L | blood / plasma glucose ([1]; in words): normal blood glucose; also recorded: did not have the hyperglycemia associated with glucose infusion | free fatty acid concentration ([1]; in words, plasma): not different for the three groups | ketone bodies ([1]; in words, plasma): elevated; also recorded: approximately the maximum associated with total fasting in the rat | Liver/100 GM ([2]; average of 7 rats): 3.223 | Liver/100 GM ([2]; individual rat): 2.859 and 3.494 and 3.130 and 3.795 and 2.482 and 3.183 and 3.620 | Liver Wt. ([2]; end of day 7, average of 7 rats): 8.603 Grams | Liver Wt. ([2]; end of day 7, individual rat): 7.12 Grams and 9.12 Grams and 7.92 Grams and 11.65 Grams and 6.85 Grams and 8.69 Grams and 8.87 Grams | liver weight and percentage liver weight ([2]; in words, end of day 7): similarity between glucose infused and experimental compound infused rats liver | Daily Body Weight ([3]; day 0, average of 7 rats): 262 Grams | Daily Body Weight ([3]; day 0, individual rat, listed as BISACETOACETYLGLYCEROL): 282 Grams and 278 Grams and 233 Grams and 283 Grams and 268 Grams and 244 Grams | Daily Body Weight ([3]; day 1, average of 7 rats): 268 Grams | Daily Body Weight [3, 10]: 311 Grams and 290 Grams and 230 Grams and 284 Grams and 268 Grams and 249 Grams and 241 Grams | Daily Body Weight ([3]; day 2, average of 7 rats): 268 Grams | Daily Body Weight [3, 11]: 273 Grams and 289 Grams and 232 Grams and 297 Grams and 279 Grams and 249 Grams and 256 Grams | Daily Body Weight ([3]; day 3, average of 7 rats): 273 Grams | Daily Body Weight [3, 12]: 278 Grams and 286 Grams and 258 Grams and 292 Grams and 256 Grams and 263 Grams | Daily Body Weight ([3]; day 4, average of 7 rats): 271 Grams | Daily Body Weight [3, 13]: 265 Grams and 284 Grams and 226 Grams and 302 Grams and 280 Grams and 262 Grams and 276 Grams | Daily Body Weight ([3]; day 5, average of 7 rats): 276 Grams | Daily Body Weight [3, 14]: 261 Grams and 276 Grams and 234 Grams and 306 Grams and 285 Grams and 293 Grams and 277 Grams | Daily Body Weight ([3]; day 6, average of 7 rats): 269 Grams | Daily Body Weight [3, 15]: 253 Grams and 261 Grams and 252 Grams and 310 Grams and 281 Grams and 269 Grams and 260 Grams | Daily Body Weight ([3]; day 7, average of 7 rats): 266 Grams | Daily Body Weight [3, 16]: 249 Grams and 261 Grams and 253 Grams and 307 Grams and 276 Grams and 273 Grams and 245 Grams | change in body weight ([3]; in words, 7 days): gained weight; also recorded: body weight changes which were consistent with nitrogen balance data; also recorded: better growth | Urinary Nitrogen ([4]; day 1, average of 7 rats): 166 mg | Urinary Nitrogen [4, 10]: 116.21 mg and 250.2 mg and 187.3 mg and 123.37 mg and 182.18 mg and 159.89 mg and 145.06 mg | Urinary Nitrogen ([4]; day 2, average of 7 rats): 192 mg | Urinary Nitrogen [4, 11]: 315.78 mg and 264.22 mg and 139.27 mg and 174.34 mg and 187.22 mg and 165.19 mg and 94.71 mg | Urinary Nitrogen ([4]; day 3, average of 7 rats): 137 mg | Urinary Nitrogen [4, 12]: 181.94 mg and 142.42 mg and 62.97 mg and 164.52 mg and 162.29 mg and 140.13 mg and 104.72 mg | Urinary Nitrogen ([4]; day 4, average of 7 rats): 173 mg | Urinary Nitrogen [4, 13]: 294.68 mg and 253.62 mg and 47.06 mg and 193.72 mg and 139.67 mg and 115.59 mg and 168.33 mg | Urinary Nitrogen ([4]; day 5, average of 7 rats): 215 mg | Urinary Nitrogen [4, 14]: 289.81 mg and 303.16 mg and 254.66 mg and 144.16 mg and 274.72 mg and 97.81 mg and 142.32 mg | Urinary Nitrogen ([4]; day 6, average of 7 rats): 195 mg | Urinary Nitrogen [4, 15]: 283.02 mg and 191.83 mg and 11.17 mg and 134.85 mg and 378.79 mg and 184.37 mg and 179.01 mg | Urinary Nitrogen ([4]; day 7, average of 7 rats): 219 mg | Urinary Nitrogen [4, 16]: 381.14 mg and 194.98 mg and 152.92 mg and 192.67 mg and 269.64 mg and 203.37 mg and 138.8 mg | Dietary Nitrogen Intake ([5]; day 1): 216 MG N | Dietary Nitrogen Intake ([5]; day 2): 333 MG N | Dietary Nitrogen Intake ([5]; day 3): 408 MG N | Dietary Nitrogen Intake ([5]; day 4): 454 MG N | Dietary Nitrogen Intake ([5]; day 5): 419 MG N | Dietary Nitrogen Intake ([5]; day 7): 389 MG N | nitrogen balance ([6]; Example 2): around +200 mg/day | Nitrogen Balance, Difference Between Intake and Output ([6]; day 1, average of 7 rats): 50 MG N | Nitrogen Balance, Difference Between Intake and Output [6, 10]: 2.23 MG N and -125.18 MG N and -49.12 MG N and 488.57 MG N and 67.86 MG N and -8.55 MG N and -26.62 MG N | Nitrogen Balance, Difference Between Intake and Output ([6]; day 2, average of 7 rats): 141 MG N | Nitrogen Balance, Difference Between Intake and Output [6, 11]: 26.38 MG N and 170.06 MG N and 345.48 MG N and 260.22 MG N and 157.23 MG N and 36.89 MG N | Nitrogen Balance, Difference Between Intake and Output ([6]; day 3, average of 7 rats): 271 MG N | Nitrogen Balance, Difference Between Intake and Output [6, 12]: 120.74 MG N and 489.26 MG N and 42.31 MG N and 282.92 MG N and 469.39 MG N and 333.63 MG N and 158.48 MG N | Nitrogen Balance, Difference Between Intake and Output ([6]; day 4, average of 7 rats): 281 MG N | Nitrogen Balance, Difference Between Intake and Output [6, 13]: 376.48 MG N and 384.64 MG N and 31.9 MG N and 385.32 MG N and 274.87 MG N and 292.37 MG N and 219.89 MG N | Nitrogen Balance, Difference Between Intake and Output ([6]; day 5, average of 7 rats): 204 MG N | Nitrogen Balance, Difference Between Intake and Output [6, 14]: 269.49 MG N and 269.3 MG N and -24.36 MG N and 244.06 MG N and 343.8 MG N and 171.97 MG N and 153.78 MG N | Nitrogen Balance, Difference Between Intake and Output ([6]; day 6, average of 7 rats): 166 MG N | Nitrogen Balance, Difference Between Intake and Output [6, 15]: 256.54 MG N and 38.47 MG N and 48.05 MG N and 240.21 MG N and 246.31 MG N and 230.17 MG N and 103.93 MG N | Nitrogen Balance, Difference Between Intake and Output ([6]; day 7, average of 7 rats): 170 MG N | Nitrogen Balance, Difference Between Intake and Output [6, 16]: 184.74 MG N and 68.22 MG N and -1.58 MG N and 228.45 MG N and 375.2 MG N and 270.39 MG N and 65.18 MG N | nitrogen balance ([6]; in words): positive nitrogen balances; also recorded: better growth and nitrogen retention | rats died from causes unknown [7]: Five | efficacy as parenteral nutrient / energy source [8]: providing significant energy beyond that which was available from oral dietary intake | efficacy as parenteral nutrient / energy source ([8]; listed as 1,2- and 1,3-bisacetoacetyl glycerol): unexpectedly high nutrient activity | Dietary Nitrogen Intake [9, 10]: 118.44 MG N and 125.02 MG N and 138.18 MG N and 611.94 MG N and 250.04 MG N and 151.34 MG N | Dietary Nitrogen Intake [9, 11]: 342.16 MG N and 434.28 MG N and 131.6 MG N and 519.82 MG N and 447.44 MG N and 322.42 MG N | Dietary Nitrogen Intake [9, 12]: 302.68 MG N and 631.68 MG N and 105.28 MG N and 447.44 MG N and 473.76 MG N and 263.2 MG N | Dietary Nitrogen Intake [9, 13]: 671.16 MG N and 638.26 MG N and 78.96 MG N and 579.04 MG N and 414.54 MG N and 407.96 MG N and 388.22 MG N | Dietary Nitrogen Intake [9, 14]: 559.3 MG N and 572.46 MG N and 230.3 MG N and 388.22 MG N and 618.52 MG N and 269.78 MG N and 296.1 MG N | Dietary Nitrogen Intake ([9]; day 6, average of 7 rats): 361 MG N | Dietary Nitrogen Intake [9, 15]: 539.56 MG N and 230.3 MG N and 59.22 MG N and 375.06 MG N and 625.1 MG N and 414.54 MG N and 282.94 MG N | Dietary Nitrogen Intake [9, 16]: 565.88 MG N and 263.2 MG N and 151.34 MG N and 421.12 MG N and 644.84 MG N and 473.76 MG N and 203.98 MG N | differences in dietary nitrogen intake among the three groups ([9]; in words, vs saline and other groups, 7 days): no differences in dietary nitrogen intake among the three groups
